From US4604239A, “Antibiotics” (Eli Lilly and Company, priority 1985, dated 1986)
Like-named read-outs stand apart in the source and are kept apart here.

Assays:
Staphylococcus aureus = assay: agar-dilution MIC; type: cell-based; conditions: Staphylococcus aureus S13E; Table 17
Hemophilus influenzae = assay: agar-dilution MIC; type: cell-based; conditions: Table 17
Bacteroides fragilis = assay: agar-dilution MIC; type: cell-based; conditions: Table 14
From the text: (§1) The agar-dilution procedure described by the International Collaborative study (ICS) group was used to determine the minimum inhibitory concentrations (MIC's).

[1] = tested on: Staphylococcus epidermidis; assay: agar-dilution MIC; type: cell-based; conditions: Table 17
From the text: as §1

Streptococcus pneumoniae = assay: agar-dilution MIC; type: cell-based; conditions: Streptococcus pneumoniae Park I; Table 17
From the text: as §1

Streptococcus pyogenes = assay: agar-dilution MIC; type: cell-based; conditions: Streptococcus pyogenes C203; Table 17
From the text: as §1

[2] = tested on: Streptococcus sp. (Group D); assay: agar-dilution MIC; type: cell-based; conditions: Table 17
From the text: as §1

[3] = tested on: Bacteroides thetaiotaomicron; type: cell-based; conditions: Bacteroides thetaiotaomicron 1438; Table 14
From the text: as §1

Propionibacterium acnes = assay: agar-dilution MIC; type: cell-based; conditions: Propionibacterium acnes 79; Table 14
From the text: Antibiotic A41030 factors A, B and C have also been tested and found to be active against a genus of anaerobic bacteria identified as Propionibacterium acnes.

Clostridium difficile = type: cell-based; conditions: Table 16
Clostridium perfringens = type: cell-based; conditions: Clostridium perfringens 81; Table 14
Clostridium septicum = assay: agar-dilution MIC; type: cell-based; conditions: Clostridium septicum 1128; Table 14
Eubacterium aerofaciens = assay: agar-dilution MIC; type: cell-based; conditions: Eubacterium aerofaciens 1235; Table 14
[4] = tested on: Peptostreptococcus anaerobius; assay: agar-dilution MIC; type: cell-based; conditions: Peptostreptococcus anaerobius 1428; Table 14
[5] = tested on: Peptostreptococcus intermedius; assay: agar-dilution MIC; type: cell-based; conditions: Peptostreptococcus intermedius 1264; Table 14
[6] = tested on: Bacteroides melaninogenicus; assay: agar-dilution MIC; type: cell-based; conditions: Table 14
Fusobacterium symbiosum = assay: agar-dilution MIC; type: cell-based; conditions: Fusobacterium symbiosum 1470; Table 14
Escherichia coli = assay: agar-dilution MIC; type: cell-based; conditions: Escherichia coli TEM; Table 17
From the text: The results after reading the which follows.

electrometric titration = type: physicochemical; conditions: electrometric titration in 66% dimethylformamide in water
From the text: Antibiotic A41030 factor A is a white, crystalline solid.

solubility = type: physicochemical
Bacteroides corrodens = assay: agar-dilution MIC; type: cell-based; conditions: Bacteroides corrodens 1874; Table 14
Bacteroides vulgatis = assay: agar-dilution MIC; type: cell-based; conditions: Bacteroides vulgatis 1211; Table 14
Peptococcus prevoti = assay: agar-dilution MIC; type: cell-based; conditions: Peptococcus prevoti 1281; Table 14

Substance A41030 factor D has an MIC (Staphylococcus aureus) of 0.25 µg/mL, an MIC (Hemophilus influenzae; Haemophilus influenzae 76) of 8 µg/mL and an MIC (Hemophilus influenzae; Haemophilus influenzae C.L.) of 8 µg/mL. The MIC (Bacteroides fragilis; Bacteroides fragilis 111) was 32 µg/mL, the MIC (Bacteroides fragilis; Bacteroides fragilis 1877) was 32 µg/mL and the MIC (Bacteroides fragilis; Bacteroides fragilis 1936B) was 32 µg/mL. For the same substance, the MIC ([1]; Staphylococcus epidermidis EPI1) was 0.25 µg/mL, the MIC ([1]; Staphylococcus epidermidis EPI2) was 1 µg/mL and the MIC (Streptococcus pneumoniae) was 0.5 µg/mL. It also gave an MIC (Streptococcus pyogenes) of 0.5 µg/mL, an MIC ([2]; Streptococcus sp. Group D 9960) of 1 µg/mL and an MIC ([2]; Streptococcus sp. Group D X66) of 1 µg/mL. For the same substance, the MIC [3] was 32 µg/mL, the MIC (Propionibacterium acnes) was 0.25 µg/mL and the MIC (Clostridium difficile; Clostridium difficile 78) was no more than 0.25 µg/mL. It also gave an MIC (Clostridium difficile; Clostridium difficile 107B) of no more than 0.25 µg/mL, an MIC (Clostridium difficile; Clostridium difficile 111F) of no more than 0.25 µg/mL and an MIC (Clostridium difficile; Clostridium difficile 1153) of 1.0 µg/mL. It also gave an MIC (Clostridium difficile; Clostridium difficile 2634) of 0.5 µg/mL, an MIC (Clostridium difficile; Clostridium difficile 3424-5B) of 0.5 µg/mL and an MIC (Clostridium difficile; Clostridium difficile 3816) of 0.5 µg/mL. The MIC (Clostridium difficile; Clostridium difficile 6890) was 0.5 µg/mL, the MIC (Clostridium difficile; Clostridium difficile 8484) was no more than 0.25 µg/mL and the MIC (Clostridium difficile; Clostridium difficile A-194) was no more than 0.25 µg/mL. The MIC (Clostridium difficile; Clostridium difficile A-195) was no more than 0.25 µg/mL, the MIC (Clostridium difficile; Clostridium difficile A-196) was 0.5 µg/mL and the MIC (Clostridium difficile; Clostridium difficile A-279) was no more than 0.25 µg/mL. It also gave an MIC (Clostridium difficile; Clostridium difficile A-280) of no more than 0.25 µg/mL, an MIC (Clostridium difficile; Clostridium difficile A-281) of 0.5 µg/mL and an MIC (Clostridium difficile; Clostridium difficile WAL-2112) of no more than 0.25 µg/mL. The MIC (Clostridium difficile; Clostridium difficile WAL-3657) was no more than 0.25 µg/mL, the MIC (Clostridium difficile; Clostridium difficile WAL-4268) was no more than 0.25 µg/mL and the MIC (Clostridium perfringens) was 0.5 µg/mL. The MIC (Clostridium septicum) was 0.25 µg/mL, the MIC (Eubacterium aerofaciens) was 0.5 µg/mL and the MIC [4] was 0.5 µg/mL. The MIC [5] was 1.0 µg/mL, the MIC ([6]; Bacteroides melaninogenicus 1856/28) was greater than 64 µg/mL and the MIC ([6]; Bacteroides melaninogenicus 2736) was 0.5 µg/mL. For the same substance, the MIC (Fusobacterium symbiosum) was 0.5 µg/mL, the MIC (Escherichia coli) was 64 µg/mL and the “possibly additional pKa's” value (electrometric titration) was greater than 10. For the same substance, the “solubility (solvents)” value (solubility) was “soluble in the same solvents as factor A”, the MIC (Bacteroides corrodens) was 32 µg/mL and the MIC (Bacteroides vulgatis) was 32 µg/mL. It also gave an MIC (Peptococcus prevoti) of 0.25 µg/mL.
